# pIC50: −log10 of the molar value. Where two headings read alike, the source gives them in different places.
# Experiments:
# S. mutans Gtfs = assay: Gtf inhibition determined by glucan quantification; assay type: biochemical, Streptococcus mutans; conditions: role: inhibitor
# Source text: The interspecies co-adherence between S. mutans and other microorganisms in the oral cavity is critical for biofilm formation and cariogenicity. Though the mechanisms of such adhesions and co-aggregations are not fully elucidated, it is believed that the extracellular polysaccharide (EPS) matrix of S. mutans has an important role in this process^49, 50. It is reported that glucans synthesized by Gtfs when incorporated into the tooth pellicle to provide enhanced binding sites for other microorganisms to form stable and persistent microcolonies, which provides mechanical stability to the EPS matrix^50, 51. Therefore, Gtf inhibition assays were performed to assess the ability of HA5 to inhibit the Gtfs and glucan production using a reported procedure and IC50 value was calculated^52.
# HA5 is a polyhydroxy compound that contains a Michael acceptor functionality which raises concerns about non-specific and covalent binding.
# Gtf inhibition determined by glucan quantification assays. Overnight cultures of S. mutans UA159 were centrifuged (6500 rpm, 4° C., 10 min) to remove cells. Supernatant was mixed with ethanol (1:1) and incubated at −80° C. for 1 h. The precipitated Gtfs were palleted using centrifugation and resuspended in chemically defined media (CDM) 10 μL of Gtfs suspended in CDM were assayed on Ibidi slides with varying concentrations of inhibitor, 1% sucrose, 1% DMSO and 1 μM Cascade blue dye in CDM. The slides were then incubated at 37° C. with 5% CO2 for 16 h after which, the wells of Ibidi slides were gently rinsed with 1×PBS and treated with 1×PBS for fluorescence microscopy imaging. The images obtained were processed in ImageJ to quantify glucans and graphed in GraphPad Prism.
# Gtf inhibition assays were performed to assess the ability of HA6 to inhibit the Gtfs and glucan production using a reported procedure and IC50 value was calculated^[44, 45] Overnight cultures of S. mutans UA159 were centrifuged (6500 rpm, 4° C., 10 min) to remove the cells. Supernatant was mixed with ethanol (1:1) and incubated at −80° C. for 1 h. The precipitated Gtfs were palleted using centrifugation and resuspended in CDM (1 mL). 10 μL of Gtfs suspension in CDM was assayed on Ibidi slides with varying concentrations of PEHA5 or HA6, 1% sucrose, 1% DMSO and 1 μM Cascade blue dextran conjugated dye in CDM. The slides were then incubated at 37° C. with 5% CO2 for 16 h after which, the wells of Ibidi slides were gently rinsed with 1×PBS and imaged using fluorescence microscopy. The images obtained were processed in ImageJ to quantify glucans and graphed in GraphPad Prism 10.0.2.
# [1] = HA5 loading into (PMAA)5 hydrogel (UV-visible spectroscopy); assay type: physicochemical; conditions: (PMAA)5 hydrogel cubes soaked in 5 mg/mL HA5 in methanol, 48 h
# Description: Encapsulation of HA5 inside (PMAA)5 hydrogels microparticles. Compound HA5 was encapsulated in the (PMAA)5 hydrogel cubes through post-loading by soaking the hydrogels in 5 mg/mL solution of HA5 in methanol for 48 h in the dark (FIGS. 1.7A-B). The free, non-encapsulated HA5 was removed from particle solution by rinsing with HEPES buffer (pH=7.4) five times using centrifugation at 5000 rpm for 10 min. The HA5 quantification was carried out with UV-visible spectroscopy (NanoDrop One C, ThermoFisher) at λ=448 nm using an HA5 calibration curve. The drug solution was analyzed before and after the exposure to the hydrogel particles and the differences in the absorbance spectra were used to determine the loading of the drug into the hydrogel network. […] Freshly extracted, intact third molars with flat surfaces obtained from Dr. Nathaniel Lawson's lab (UAB School of Dentistry, IRB-300001291) were used in these studies. The AFM silicon probes NSG30 (NT-MDT, resonance frequency 240-440 kHz, force constant 22-100 N m^−1, tip radii is 10 nm, scan rate is 0.5 Hz) were used for imaging the tooth surfaces in tapping mode before and after hydrogel adhesion. […] The height of the dried hydrogel cubes was determined using section profiles, which indicated an average particle height of 1.3±0.2 μm. […]
smiles,measurement,setting,value
"O=C1/C(=C/c2cc(O)c(O)cc2O)Oc2ccccc21 [HA5, 2-[(2′,4′,5′-Trihydroxyphenyl)methylidene]-2,3-dihydro-1-benzofuran-3-one]",pIC50,"S. mutans Gtfs; 1% sucrose, 1% DMSO, no BME or Triton-X-100, read-out: Gtf inhibition (glucan production) IC50",4.98
same,pIC50,"S. mutans Gtfs; no BME, unit M, read-out: Gtf inhibition (glucan production) IC50",4.98
same,pIC50,"S. mutans Gtfs; with beta-mercaptoethanol 1 mM, read-out: Gtf inhibition IC50 in the presence of BME",5.11
same,pIC50,"S. mutans Gtfs; with detergent Triton-X-100, read-out: Gtf inhibition IC50 in the presence of Triton-X-100",5.29
same,loading capacity,[1],5.5×10^−3 ng of HA5 per particle

# Source: patent US20260315431A1, “NANOMATERIAL ENCAPSULATED BIOFILM INHIBITORS FOR DENTAL CARIES TREATMENT” (THE UAB RESEARCH FOUNDATION, priority 2023, published 2026)
